Results published in patent US8026271B2, “Formulations of indol-3-yl-2-oxoacetamide compounds” (National Health Research Institutes, priority 2008, dated 2011).
Converted amounts (≈) assume the structure as drawn. Read-outs that look alike come from different tables or passages of the source.

Legend:
[1] = Solubility of BPR0C261 in different carriers or mixed carriers; type: physicochemical; settings: room temperature
Experimental: The solubility of BPR0C261 in different drug carriers or mixed carriers was evaluated. The solubility is defined as the maximum amount of a compound dissolved in a carrier or mixed carrier at room temperature.

[2] = Oral bioavailability of BPR0C261 (po vs IV PK profiles, plasma by HPLC-Tandem Mass spectrometry); type: in vivo; settings: mouse, 2 mg/kg, po by gavage, read-out: Oral bioavailability (F %)
Experimental: The oral bioavailability of BPR0C261 was assessed by comparing the pharmacokinetic (“PK”) profiles obtained from orally administered (“po”) BPR0C261 in various oral formulation described herein with the PK profile obtained from intravenously administered (“IV”) BPR0C261.
An intravenous formulation of BPR0C261 (carriers: 5% DMSO, 25% Cremophor EL, and 70% water, v/v/v) was administered intravenously by a bolus injection to a group of three mice each via the tail vein, in a single dose of 2 mg/Kg body weight. A blood sample (0.15 mL) was drawn at different points (pre-dose, 2 min, 5 min, 15 min, 30 min. 1 hr, 2 hr, 4 hr, 6 hr, 8 hr, and 24 hr after dosing) from each animal via the cardiac puncture and stored in ice (0-5° C.). […]
Plasma was separated from the blood sample by centrifugation at 15,000 g for 15 min at 4° C. […] All plasma samples were analyzed for the BPR0C261 concentrations by HPLC-Tandem Mass spectrometry.
BPR0C261 plasma concentration data were used to obtain the PK profile for the IV or po administration, i.e., a plasma-concentration vs. time curve. The area under the curve (“AUC”) was then calculated. Oral bioavailability (F %) was determined by comparing the dose-normalized area under the curve for the oral formulation (“AUCpo/dosepo”) with that for the intravenous formulation (“AUCIV/doseIV”), i.e., F %=[AUCpo/dosepo]/[AUCIV/doseIV].

With `Cc1cc(Cn2cc(C(=O)C(=O)Nc3cc(C)ns3)c3ccccc32)on1` [BPR0C261, N-(3-methylisothiazol-5-yl)-2-[1-(3-methylisoxazol-5-ylmethyl)-1H-indol-3-yl]-2-oxoacetamide] the solubility ([1]; aqueous with cosolvent or surfactant or cyclodextrin, carrier 3: DMSO (20%), Tween 80 (10%), and DDW (70%)) was < 5000 µg/mL, the solubility ([1]; aqueous with cosolvent or surfactant or cyclodextrin, carrier 13: DMSO (5%), Cremophor EL (25%), and DDW (70%)) was < 5000 µg/mL and the solubility ([1]; aqueous with cosolvent or surfactant or cyclodextrin, carrier 14: Methylcellulose (1%), Tween 80 (2%), PEG 400 (10%), and DDW (87%)) was < 1000 µg/mL. It also gave a solubility ([1]; carrier 1: Double distilled water (DDW)) of ~0.12 µg/mL (≈ 0.000315 mM), a solubility ([1]; organic solvent or mixture, carrier 2: DMSO) of ~5000 µg/mL (≈ 13.1 mM) and a solubility ([1]; organic solvent or mixture, carrier 4: Ethanol (3%), Glycerol (2%), PEG 400 (70%), PG (20%), and Transcutol (5%)) of 10000 to 30000 µg/mL (≈ 26.3 to 78.9 mM). The solubility ([1]; organic solvent or mixture, carrier 5: Glycerol (5%) and PEG 400 (95%)) was 10000 to 30000 µg/mL (≈ 26.3 to 78.9 mM), the solubility ([1]; organic solvent or mixture, carrier 6: TPGS (20%) and PEG 400 (80%)) was 10000 to 30000 µg/mL (≈ 26.3 to 78.9 mM) and the solubility ([1]; organic solvent or mixture, carrier 7: Transcutol (10%) and PEG 400 (90%)) was 10000 to 30000 µg/mL (≈ 26.3 to 78.9 mM). It also gave a solubility ([1]; organic solvent or mixture, carrier 8: DMSO (10%), PEG 400 (80%), and propylene glycol (10%)) of 10000 to 30000 µg/mL (≈ 26.3 to 78.9 mM), a solubility ([1]; organic solvent or mixture, carrier 9: Transcutol (10%), Cremophor EL (20%), and PEG 400 (70%)) of 10000 to 30000 µg/mL (≈ 26.3 to 78.9 mM) and a solubility ([1]; organic solvent or mixture, carrier 10: TPGS (20%), Transcutol (20%), and PEG 400 (60%)) of ~50000 µg/mL (≈ 131 mM). It also gave a solubility ([1]; organic solvent or mixture, carrier 11: TPGS (40%), Transcutol (20%), and PEG 400 (40%)) of ~50000 µg/mL (≈ 131 mM), a solubility ([1]; organic solvent or mixture, carrier 12: TPGS (75%) and Transcutol (25%)) of ~50000 µg/mL (≈ 131 mM) and a bioavailability ([2]; formulation containing 5% DMSO, 25% Cremophor EL, and 70% water (v/v/v), vs IV 2 mg/Kg) of 18%. For the same compound, the bioavailability ([2]; formulations containing TPGS, Transcutol, and optionally PEG 400, vs IV 2 mg/Kg) was 25 to 80%.
